From patent publication US4735959A, “Carboxylic acid amides and pharmaceutical compositions containing them” (Dr. Karl Thomae GmbH, priority 1981, dated 1988)
Like-named read-outs stand apart in the source and are kept apart here.

Tested on: blood-sugar
Assay: Blood-sugar lowering activity in starved female rats after oral administration
Format: in vivo
Settings: for change in vivo at 1 mg/kg / change in vivo at 5 mg/kg / change in vivo at 0.6 mg/kg / change in vivo at 10 mg/kg: Rattus norvegicus, po, read-out: Blood-sugar lowering activity, percent as compared with the controls; for change in vivo at 0.6 mg/kg: 0.6 mg/kg orally; for change in vivo at 10 mg/kg: 10 mg/kg orally (footnote *)
Experimental: The blood-sugar lowering activity of the test compounds was determined in home-bred female rats with weights of from 180 to 220 grams. Twenty-four hours before starting the test the animals were starved. Before the test the compounds were suspended in 1.5% methyl cellulose and administered to the animals by means of an esophageal tube.
Blood was taken from the retroorbital plexus vein before administration of the test compounds as well as each of 1, 2, 3, and 4 hours after administration. Fifty microliters of each sample were deproteinized with 0.5 ml of 0.33N perchloric acid and centrifuged. The glucose content was determined in the supernatant according to the Hexokinase method by means of an analysis photometer. The statistical evalulation was performed with the t-test according to Student with p=0.05.

[1] = 1 mg/kg orally, 1 hour, n.s. = not statistically significant
[2] = 1 mg/kg orally, 2 hours, n.s. = not statistically significant
[3] = 1 mg/kg orally, 3 hours, n.s. = not statistically significant
[4] = 1 mg/kg orally, 4 hours, n.s. = not statistically significant
[5] = 5 mg/kg orally, 1 hour, n.s. = not statistically significant
[6] = 5 mg/kg orally, 2 hours, n.s. = not statistically significant
[7] = 5 mg/kg orally, 3 hours, n.s. = not statistically significant
[8] = 5 mg/kg orally, 4 hours, n.s. = not statistically significant
[9] = 3 hours, n.s. = not statistically significant
[10] = 4 hours, n.s. = not statistically significant

CC(NC(=O)Cc1ccc(C(=O)O)cc1)c1ccccc1N1CCCCC1 (single isomer, unassigned; (+)) [AU, (+)-4-[(1-(2-Piperidino-phenyl)-1-ethyl)-aminocarbonylmethyl]-benzoic acid]
change in vivo at 1 mg/kg [1]: -41% | change in vivo at 1 mg/kg [2]: -22% | change in vivo at 1 mg/kg [3]: -17% | change in vivo at 1 mg/kg [4]: -15%

CCCC(NC(=O)Cc1ccc(C(=O)O)cc1)c1ccccc1N1CCCCC1 (single isomer, unassigned; (+)) [K, (+)-4-[(1-(2-Piperidino-phenyl)-1-butyl)-aminocarbonylmethyl]-benzoic acid]
change in vivo at 1 mg/kg [1]: -41% | change in vivo at 1 mg/kg [2]: -43% | change in vivo at 1 mg/kg [3]: -38% | change in vivo at 1 mg/kg [4]: -31%

CCCC(NC(=O)Cc1ccc(C(=O)OCC)cc1)c1ccccc1N1CCCCC1 (single isomer, unassigned; (+)) [L, (+)-4-[(1-(2-Piperidino-phenyl)-1-butyl)-aminocarbonylmethyl]-benzoic acid ethyl ester]
Blood-sugar lowering activity, percent as compared with the controls [4]: n.s. | change in vivo at 1 mg/kg [1]: -14% | change in vivo at 1 mg/kg [2]: -18% | change in vivo at 1 mg/kg [3]: -14% | change in vivo at 5 mg/kg [5]: -42% | change in vivo at 5 mg/kg [6]: -45% | change in vivo at 5 mg/kg [7]: -31% | change in vivo at 5 mg/kg [8]: -22%

O=C(Cc1ccc(C(=O)O)cc1)NC(c1ccccc1)c1ccccc1N1CCCCC1 (single isomer, unassigned; (-)) [AW, (-)-4-[(2-Piperidino-benzhydryl)-aminocarbonylmethyl]-benzoic acid]
change in vivo at 0.6 mg/kg (1 hour): -40% | change in vivo at 0.6 mg/kg (2 hours): -34% | change in vivo at 0.6 mg/kg (3 hours): -31% | change in vivo at 0.6 mg/kg (4 hours): -26%

O=C(Cc1ccc(C(=O)O)cc1)NC(c1cccc(Cl)c1)c1ccccc1N1CCCCC1 (stereo not drawn) [AF, 4-[(α-(3-Chloro-phenyl)-2-piperidino-benzyl)-aminocarbonylmethyl]-benzoic acid]
Blood-sugar lowering activity, percent as compared with the controls [3]: n.s. | Blood-sugar lowering activity, percent as compared with the controls [4]: n.s. | change in vivo at 1 mg/kg [1]: -17% | change in vivo at 1 mg/kg [2]: -19% | change in vivo at 5 mg/kg [5]: -43% | change in vivo at 5 mg/kg [6]: -39% | change in vivo at 5 mg/kg [7]: -30% | change in vivo at 5 mg/kg [8]: -26%

O=C(Cc1ccc(C(=O)O)cc1)NC(c1ccncc1)c1ccccc1N1CCCCC1 (stereo not drawn) [AH, 4-[(2-Piperidino-α-(4-pyridyl)-benzyl)-aminocarbonylmethyl]-benzoic acid]
Blood-sugar lowering activity, percent as compared with the controls [3]: n.s. | Blood-sugar lowering activity, percent as compared with the controls [4]: n.s. | Blood-sugar lowering activity, percent as compared with the controls [8]: n.s. | change in vivo at 1 mg/kg [1]: -26% | change in vivo at 1 mg/kg [2]: -14% | change in vivo at 5 mg/kg [5]: -41% | change in vivo at 5 mg/kg [6]: -37% | change in vivo at 5 mg/kg [7]: -20%

O=C(Cc1ccc(C(=O)O)cc1)NC(c1ccccc1)c1c(Cl)cccc1N1CCCCC1 (stereo not drawn) [AJ, 4-[(6-Chloro-α-phenyl-2-piperidino-benzyl)-aminocarbonylmethyl]-benzoic acid]
change in vivo at 1 mg/kg [1]: -35% | change in vivo at 1 mg/kg [2]: -34% | change in vivo at 1 mg/kg [3]: -28% | change in vivo at 1 mg/kg [4]: -20% | change in vivo at 5 mg/kg [5]: -44% | change in vivo at 5 mg/kg [6]: -40% | change in vivo at 5 mg/kg [7]: -39% | change in vivo at 5 mg/kg [8]: -40%

O=C(O)C=Cc1ccc(CC(=O)NC(c2ccccc2)c2ccccc2N2CCCCC2)cc1 (stereo not drawn) [AK, 4-[(α-Phenyl-2-piperidino-benzyl)-aminocarbonylmethyl]-cinnamic acid]
change in vivo at 1 mg/kg [1]: -32% | change in vivo at 1 mg/kg [2]: -19% | change in vivo at 1 mg/kg [3]: -10% | change in vivo at 1 mg/kg [4]: -17% | change in vivo at 10 mg/kg (1 hour): -48% | change in vivo at 10 mg/kg (2 hours): -47% | change in vivo at 10 mg/kg [9]: -40% | change in vivo at 10 mg/kg [10]: -45%

O=C(O)CCc1ccc(CC(=O)NC(c2ccccc2)c2ccccc2N2CCCCC2)cc1 (stereo not drawn) [AL, 3-{4-[(α-Phenyl-2-piperidino-benzyl)-aminocarbonylmethyl]-phenyl}-propionic acid]
change in vivo at 1 mg/kg [1]: -40% | change in vivo at 1 mg/kg [2]: -31% | change in vivo at 1 mg/kg [3]: -23% | change in vivo at 1 mg/kg [4]: -12% | change in vivo at 10 mg/kg (1 hour): -43% | change in vivo at 10 mg/kg (2 hours): -41% | change in vivo at 10 mg/kg [9]: -38% | change in vivo at 10 mg/kg [10]: -34%
